According to paper PMC6980656 (Cell chemical biology, 2019):

Tests used:
Wee1 [1] = molecular target: T1, Wee1 (Homo sapiens, UniProt P30291); test: KINOMEscan profiling; type: binding; settings: 1 μM
MOLT4 cells [2] = test: CellTiter-Glo cell viability, parental MOLT4; type: cell-based; settings: for IC50: Homo sapiens, MOLT-4, 72 h, read-out: IC50, antiproliferative activity
[3] = test system: MCF10A non-transformed mammary epithelial cell line; test: Image-based cell cycle assay in MCF10A
[4] = test system: pCDK1 Y15, PARP cleavage, γH2Ax; test: Immunoblot of downstream markers; type: cell-based; settings: MOLT4 cells; for downstream changes (pCDK1 Y15, PARP cleavage, γH2Ax): 100 nM
PLK1 [5] = molecular target: T2, PLK1 (Homo sapiens, UniProt P53350); test: KINOMEscan profiling; type: binding; settings: 1 μM
Wee1 [6] = molecular target: T1, Wee1; test: Immunoblot of Wee1 degradation in parental MOLT4 cells; type: cell-based
MOLT4 cells [7] = test: Cell cycle analysis by propidium iodide staining, parental MOLT4; type: cell-based; settings: PI staining; for effect on cell cycle (G2/M proportion): 100 nM
[8] = test system: phosphorylation of CDK1 at Tyr15 (pCDK1 Y15); test: Immunoblot of pCDK1 Y15 in parental MOLT4 cells; type: cell-based
Wee1 [9] = molecular target: T1, Wee1; test: LanthaScreen FRET-based assay; type: binding; settings: for engagement of recombinant Wee1: LanthaScreen, Table S1
[10] = test system: BT549, HCC1806, COV362, Kuramochi, OVCAR8 cell lines; test: Image-based cell cycle assay in TNBC and ovarian cancer cell lines
Wee1 [11] = molecular target: T1, Wee1; test: Wee1 degradation in OVCAR8 cells; type: cell-based
ZFP91 = ZFP91 (Homo sapiens, UniProt Q96JP5+Q96SW2); test: ZFP91 abundance by proteomics in MOLT4 cells; type: cell-based; settings: 100 nM, 2 hrs
[12] = test system: OCE1 non-malignant ovarian line; test: Viability in non-malignant ovarian line; type: cell-based
Wee1 [13] = molecular target: T1, Wee1; test: Immunoblot of Wee1 degradation in CRBN−/− MOLT4 cells; type: cell-based; settings: 5 hrs
[14] = test system: phosphorylation of CDK1 at Tyr15 (pCDK1 Y15); test: Immunoblot of pCDK1 Y15 in CRBN−/− MOLT4 cells; type: cell-based; settings: 5 hrs
MOLT4 CRBN−/− cells = test: CellTiter-Glo cell viability, CRBN−/− MOLT4; type: cell-based; settings: 72 hrs
PLK1 [15] = molecular target: T2, PLK1; test: PLK1 abundance by proteomics and immunoblot in MOLT4 cells; type: cell-based; settings: proteomics (100 nM, 2 hrs) or immunoblot
Aiolos (IKZF3) = Aiolos (IKZF3) (Homo sapiens, UniProt Q96SW2+Q9UKT9); test: IKZF3 degradation, proteomics/immunoblotting; type: cell-based
CRBN−/− MOLT4 cells = test: Cell cycle analysis by propidium iodide staining, CRBN−/− MOLT4; type: cell-based; settings: 100 nM, 24 hrs
Ikaros (IKZF1) = Ikaros (IKZF1) (Homo sapiens, UniProt Q13422+Q96SW2); test: IKZF1 degradation, proteomics/immunoblotting; type: cell-based
[16] = test system: 300 suspension and hematopoietic cancer cell lines; test: PRISM pooled cytotoxicity assay; type: cell-based
OVCAR8 cells = test: Synergy co-treatment, CellTiter-Glo in OVCAR8 cells; type: cell-based; settings: for synergy with Olaparib: 72 hr co-treatment
[17] = test system: OVCAR8, COV283, and Kuramochi ovarian cancer cell lines; test: Viability in ovarian cancer cell line panel; type: cell-based
[18] = MOLT4 cells, 2 hrs pretreatment then 5 hrs co-treatment
[19] = 24 hr treatment, immunoblotting

T1 sequence (P30291 whole entry): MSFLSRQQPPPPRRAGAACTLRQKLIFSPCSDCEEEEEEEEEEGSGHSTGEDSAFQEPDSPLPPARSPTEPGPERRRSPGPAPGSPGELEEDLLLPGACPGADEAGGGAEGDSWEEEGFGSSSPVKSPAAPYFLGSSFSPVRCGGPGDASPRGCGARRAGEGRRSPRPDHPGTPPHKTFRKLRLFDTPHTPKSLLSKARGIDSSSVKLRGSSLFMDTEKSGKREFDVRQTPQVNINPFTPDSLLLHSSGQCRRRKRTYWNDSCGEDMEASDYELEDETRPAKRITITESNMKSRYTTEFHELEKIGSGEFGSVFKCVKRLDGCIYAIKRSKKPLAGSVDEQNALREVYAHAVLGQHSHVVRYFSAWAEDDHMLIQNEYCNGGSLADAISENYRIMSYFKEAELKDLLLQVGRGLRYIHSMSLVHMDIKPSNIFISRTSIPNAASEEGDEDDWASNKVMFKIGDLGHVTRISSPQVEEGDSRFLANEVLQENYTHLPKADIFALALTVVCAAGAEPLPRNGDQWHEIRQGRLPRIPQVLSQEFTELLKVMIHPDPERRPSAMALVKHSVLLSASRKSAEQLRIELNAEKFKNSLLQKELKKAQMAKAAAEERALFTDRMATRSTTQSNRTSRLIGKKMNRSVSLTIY
T2 sequence (P53350 whole entry): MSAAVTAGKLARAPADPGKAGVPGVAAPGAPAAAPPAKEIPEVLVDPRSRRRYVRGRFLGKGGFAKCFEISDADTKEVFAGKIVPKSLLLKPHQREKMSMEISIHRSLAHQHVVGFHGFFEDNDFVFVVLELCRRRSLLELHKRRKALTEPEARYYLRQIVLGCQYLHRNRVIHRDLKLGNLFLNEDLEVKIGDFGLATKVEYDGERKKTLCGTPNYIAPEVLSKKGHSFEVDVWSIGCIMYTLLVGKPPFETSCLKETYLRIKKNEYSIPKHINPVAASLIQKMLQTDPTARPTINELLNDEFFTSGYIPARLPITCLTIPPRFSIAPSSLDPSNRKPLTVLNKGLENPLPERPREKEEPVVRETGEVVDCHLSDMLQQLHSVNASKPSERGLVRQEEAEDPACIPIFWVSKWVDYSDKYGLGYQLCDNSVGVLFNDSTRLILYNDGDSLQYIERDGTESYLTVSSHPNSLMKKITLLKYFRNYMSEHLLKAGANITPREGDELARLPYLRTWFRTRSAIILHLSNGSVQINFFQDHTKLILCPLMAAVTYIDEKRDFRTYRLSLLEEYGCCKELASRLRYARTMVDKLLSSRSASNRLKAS
Ikaros (IKZF1), sequence (Q13422 whole entry): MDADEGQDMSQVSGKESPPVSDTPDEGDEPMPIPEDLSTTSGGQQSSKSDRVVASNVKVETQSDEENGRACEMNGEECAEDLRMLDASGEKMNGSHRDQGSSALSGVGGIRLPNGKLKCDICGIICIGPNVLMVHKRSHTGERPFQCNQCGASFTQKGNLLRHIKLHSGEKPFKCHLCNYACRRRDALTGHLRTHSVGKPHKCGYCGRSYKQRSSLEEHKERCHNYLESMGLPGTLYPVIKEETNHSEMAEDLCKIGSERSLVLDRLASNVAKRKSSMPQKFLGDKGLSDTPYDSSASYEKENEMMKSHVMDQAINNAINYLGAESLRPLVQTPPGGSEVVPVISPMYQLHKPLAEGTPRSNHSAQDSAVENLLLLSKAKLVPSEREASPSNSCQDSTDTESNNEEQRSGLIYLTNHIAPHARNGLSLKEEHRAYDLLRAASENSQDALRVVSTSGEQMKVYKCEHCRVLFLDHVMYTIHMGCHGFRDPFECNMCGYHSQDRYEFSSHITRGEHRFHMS
Ikaros (IKZF1), sequence (Q96SW2 whole entry): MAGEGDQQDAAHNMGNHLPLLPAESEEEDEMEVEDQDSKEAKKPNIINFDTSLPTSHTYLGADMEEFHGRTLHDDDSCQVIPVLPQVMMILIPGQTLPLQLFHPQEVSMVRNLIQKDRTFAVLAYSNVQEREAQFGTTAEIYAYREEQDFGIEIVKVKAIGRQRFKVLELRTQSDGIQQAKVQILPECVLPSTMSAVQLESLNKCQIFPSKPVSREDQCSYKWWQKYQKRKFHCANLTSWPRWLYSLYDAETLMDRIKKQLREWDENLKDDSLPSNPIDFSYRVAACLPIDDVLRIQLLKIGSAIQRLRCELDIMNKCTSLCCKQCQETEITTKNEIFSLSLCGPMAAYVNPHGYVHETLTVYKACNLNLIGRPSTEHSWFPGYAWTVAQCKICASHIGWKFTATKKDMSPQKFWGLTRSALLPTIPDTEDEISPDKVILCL
Ikaros (IKZF1), sequence (Q16531 whole entry partner): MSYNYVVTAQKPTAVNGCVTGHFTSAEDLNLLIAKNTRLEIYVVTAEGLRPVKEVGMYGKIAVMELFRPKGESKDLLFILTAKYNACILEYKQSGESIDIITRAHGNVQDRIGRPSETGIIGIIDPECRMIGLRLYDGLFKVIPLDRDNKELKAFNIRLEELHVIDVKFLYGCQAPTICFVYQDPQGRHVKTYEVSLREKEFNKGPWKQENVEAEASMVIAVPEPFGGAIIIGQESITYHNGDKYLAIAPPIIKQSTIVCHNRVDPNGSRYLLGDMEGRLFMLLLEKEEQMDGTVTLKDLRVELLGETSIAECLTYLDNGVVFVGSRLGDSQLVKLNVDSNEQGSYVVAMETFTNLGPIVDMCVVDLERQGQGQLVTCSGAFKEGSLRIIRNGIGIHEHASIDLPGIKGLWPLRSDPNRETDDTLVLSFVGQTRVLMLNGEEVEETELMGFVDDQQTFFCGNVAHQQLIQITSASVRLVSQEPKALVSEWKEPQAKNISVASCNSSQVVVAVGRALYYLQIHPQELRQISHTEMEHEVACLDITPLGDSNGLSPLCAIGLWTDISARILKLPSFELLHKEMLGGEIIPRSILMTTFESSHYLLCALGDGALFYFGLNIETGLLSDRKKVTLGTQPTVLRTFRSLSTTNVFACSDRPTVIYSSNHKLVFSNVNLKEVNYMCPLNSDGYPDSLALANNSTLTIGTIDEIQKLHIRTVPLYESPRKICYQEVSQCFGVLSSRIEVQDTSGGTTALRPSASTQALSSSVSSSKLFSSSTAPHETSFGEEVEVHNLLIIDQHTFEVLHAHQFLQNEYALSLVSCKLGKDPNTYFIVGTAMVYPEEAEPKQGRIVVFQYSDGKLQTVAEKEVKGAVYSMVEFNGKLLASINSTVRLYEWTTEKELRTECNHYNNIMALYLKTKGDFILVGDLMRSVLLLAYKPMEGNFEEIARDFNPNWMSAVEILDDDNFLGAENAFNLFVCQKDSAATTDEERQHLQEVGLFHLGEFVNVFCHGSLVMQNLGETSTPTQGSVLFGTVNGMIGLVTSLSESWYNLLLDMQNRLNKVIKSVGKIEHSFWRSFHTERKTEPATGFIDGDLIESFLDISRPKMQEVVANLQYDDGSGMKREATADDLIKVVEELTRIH
Aiolos (IKZF3), sequence (Q9UKT9 whole entry): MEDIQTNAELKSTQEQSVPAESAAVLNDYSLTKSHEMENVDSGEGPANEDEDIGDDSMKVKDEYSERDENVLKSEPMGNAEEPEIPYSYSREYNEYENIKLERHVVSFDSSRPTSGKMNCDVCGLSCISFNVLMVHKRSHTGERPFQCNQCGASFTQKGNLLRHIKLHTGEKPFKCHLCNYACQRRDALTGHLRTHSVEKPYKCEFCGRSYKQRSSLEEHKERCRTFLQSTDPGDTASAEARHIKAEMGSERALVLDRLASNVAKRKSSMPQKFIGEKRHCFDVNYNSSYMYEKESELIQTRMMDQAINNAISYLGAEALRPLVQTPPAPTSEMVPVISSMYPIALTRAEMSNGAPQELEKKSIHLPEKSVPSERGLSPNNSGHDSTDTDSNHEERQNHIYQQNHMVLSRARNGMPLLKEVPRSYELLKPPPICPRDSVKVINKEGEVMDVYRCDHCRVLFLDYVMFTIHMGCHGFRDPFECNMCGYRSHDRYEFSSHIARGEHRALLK
Aiolos (IKZF3), sequence (Q96SW2 whole entry): as the sequence (Q96SW2 whole entry) above
Aiolos (IKZF3), sequence (Q16531 whole entry partner): as the sequence (Q16531 whole entry partner) above
ZFP91, sequence (Q96JP5 whole entry): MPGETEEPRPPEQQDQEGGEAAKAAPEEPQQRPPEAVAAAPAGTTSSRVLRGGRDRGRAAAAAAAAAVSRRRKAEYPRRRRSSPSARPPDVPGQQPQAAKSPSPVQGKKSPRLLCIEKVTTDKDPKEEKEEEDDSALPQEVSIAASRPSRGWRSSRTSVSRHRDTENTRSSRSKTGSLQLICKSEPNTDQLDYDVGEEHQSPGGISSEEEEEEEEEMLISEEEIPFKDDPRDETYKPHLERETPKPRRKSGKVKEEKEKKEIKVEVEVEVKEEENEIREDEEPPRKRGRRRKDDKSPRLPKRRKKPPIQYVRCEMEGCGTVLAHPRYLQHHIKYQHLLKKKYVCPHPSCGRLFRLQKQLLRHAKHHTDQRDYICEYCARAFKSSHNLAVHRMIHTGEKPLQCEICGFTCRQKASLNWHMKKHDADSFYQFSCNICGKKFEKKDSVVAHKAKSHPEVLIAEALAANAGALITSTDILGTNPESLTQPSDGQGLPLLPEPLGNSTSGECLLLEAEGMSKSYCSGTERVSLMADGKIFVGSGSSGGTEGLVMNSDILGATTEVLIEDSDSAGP
ZFP91, sequence (Q96SW2 whole entry): as the sequence (Q96SW2 whole entry) above
ZFP91, sequence (Q16531 whole entry partner): as the sequence (Q16531 whole entry partner) above

Compound: C=CCn1c(=O)c2cnc(Nc3ccc(N4CCN(C)CC4)cc3)nc2n1-c1cccc(C(C)(C)O)n1 [AZD1775, reference compound]
- KINOMEscan engagement of Wee1 (Wee1 [1]): strong engagement
- IC50 (MOLT4 cells [2]): 800 nM
- cell cycle changes [3]: neither ZNL-02-096 nor AZD1775 induced significant cell cycle changes
- concentration necessary to produce the same downstream changes ([4]; 24 hr): 1 µM
- downstream changes (pCDK1 Y15, PARP cleavage, γH2Ax) ([4]; 24 hr): did not produce these downstream changes
- KINOMEscan engagement of PLK1 (PLK1 [5]): strong engagement
- Wee1 degradation (immunoblot, in words) (Wee1 [6]; MOLT4 cells, 5 hr treatment): insufficient to induce Wee1 degradation
- effect on cell cycle (G2/M proportion) (MOLT4 cells [7]): did not appreciably affect the cell cycle
- dose needed to elicit the same cell cycle changes as 100 nM ZNL-02-096 (MOLT4 cells [7]): 1 µM
- effect on pCDK1 Y15 ([8]; MOLT4 cells, 1 μM pretreatment alone, independent of ZNL-02-096 co-treatment): decreased pCDK1 Y15

Compound: C=CCn1c(=O)c2cnc(Nc3ccc(N4CCN(CCCNC(=O)CCOCCOCCNc5cccc6c5C(=O)N(C5CCC(=O)NC5=O)C6=O)CC4)cc3)nc2n1-c1cccc(C(C)(C)O)n1 (stereo not shown) [ZNL-02-012, N-(3-(4-(4-((2-allyl-1-(6-(2-hydroxypropan-2-yl)pyridin-2-yl)-3-oxo-2,3-dihydro-1H-pyrazolo[3,4-d]pyrimidin-6-yl)amino)phenyl)piperazin-1-yl)propyl)-3-(2-(2-((2-(2,6-dioxopiperidin-3-yl)-1,3-dioxoisoindolin-4-yl)amino)ethoxy)ethoxy)propenamide]
- IC50 (Wee1 [9]): 1 to 10 nM
- Wee1 degradation (immunoblot, in words) (Wee1 [6]; MOLT4 cells, 5 hr treatment): induced Wee1 degradation
- concentration required to achieve maximal Wee1 degradation (Wee1 [6]; MOLT4 cells, 5 hr treatment): 1 µM

Compound: C=CCn1c(=O)c2cnc(Nc3ccc(N4CCN(CCCCCCNc5cccc6c5C(=O)N(C5CCC(=O)NC5=O)C6=O)CC4)cc3)nc2n1-c1cccc(C(C)(C)O)n1 (stereo not shown) [ZNL-02-040, 4-((6-(4-(4-((2-Allyl-1-(6-(2-hydroxypropan-2-yl)pyridin-2-yl)-3-oxo-2,3-dihydro-1H-pyrazolo[3,4-d]pyrimidin-6-yl)amino)phenyl)piperazin-1-yl)hexyl)amino)-2-(2,6-dioxopiperidin-3-yl)isoindoline-1,3-dione]
- engagement of recombinant Wee1 (Wee1 [9]): potently engaged recombinant Wee1
- Wee1 degradation (immunoblot, in words) (Wee1 [6]; MOLT4 cells, 5 hr treatment): induced Wee1 degradation

Compound: C=CCn1c(=O)c2cnc(Nc3ccc(N4CCN(CCOCCOCCOCCNc5cccc6c5C(=O)N(C5CCC(=O)NC5=O)C6=O)CC4)cc3)nc2n1-c1cccc(C(C)(C)O)n1 (stereo not shown) [ZNL-02-047, 4-((2-(2-(2-(2-(4-(4-((2-Allyl-1-(6-(2-hydroxypropan-2-yl)pyridin-2-yl)-3-oxo-2,3-dihydro-1H-pyrazolo[3,4-d]pyrimidin-6-yl)amino)phenyl)piperazin-1-yl)ethoxy)ethoxy)ethoxy)ethyl)amino)-2-(2,6-dioxopiperidin-3-yl)isoindoline-1,3-dione]
- IC50 (Wee1 [9]): 1 to 10 nM
- Wee1 degradation (immunoblot, in words) (Wee1 [6]; MOLT4 cells, 5 hr treatment): induced Wee1 degradation
- concentration sufficient to degrade Wee1 (Wee1 [6]; MOLT4 cells, 5 hr treatment): 100 nM

Compound: C=CCn1c(=O)c2cnc(Nc3ccc(N4CCN(CCCNc5cccc6c5C(=O)N(C5CCC(=O)NC5=O)C6=O)CC4)cc3)nc2n1-c1cccc(C(C)(C)O)n1 (stereo not shown) [ZNL-02-096, 4-((3-(4-(4-((2-Allyl-1-(6-(2-hydroxypropan-2-yl)pyridin-2-yl)-3-oxo-2,3-dihydro-1H-pyrazolo[3,4-d]pyrimidin-6-yl)amino)phenyl)piperazin-1-yl)propyl)amino)-2-(2,6-dioxopiperidin-3-yl)isoindoline-1,3-dione]
- KINOMEscan engagement of Wee1 (Wee1 [1]): strong engagement
- engagement of recombinant Wee1 (Wee1 [9]): potently engaged recombinant Wee1
- IC50 (MOLT4 cells [2]): 390 nM
- cell cycle changes [3]: neither ZNL-02-096 nor AZD1775 induced significant cell cycle changes
- G2/M phase accumulation [10]: induced G2/M phase accumulation at lower doses than either ZNL-02-178 or AZD1775
- concentration of maximal Wee1 degradation (Wee1 [11]): 100 nM
- ZFP91 degradation (ZFP91): low levels of ZFP91 degradation
- fold lower dose than AZD1775 for the same downstream effects [4]: 10 fold
- concentration producing reduced pCDK1 Y15, PARP cleavage and γH2Ax ([4]; 24 hr): 100 nM
- KINOMEscan engagement of PLK1 (PLK1 [5]): strong engagement
- cytotoxicity [12]: little cytotoxicity
- time to complete Wee1 degradation (Wee1 [6]; MOLT4 cells, 100 nM): ≤ 3 h
- Wee1 degradation (Wee1 [6]; MOLT4 cells, 100 nM, within 30 min): over 50%
- Wee1 degradation by ZNL-02-096 after MLN4924 pretreatment (Wee1 [6]; [18]): prevented
- Wee1 degradation by ZNL-02-096 after carfilzomib pretreatment (Wee1 [6]; [18]): rescued
- Wee1 degradation by ZNL-02-096 after pretreatment with excess AZD1775 (Wee1 [6]; [18]): prevented ZNL-02-096-induced Wee1 degradation
- Wee1 degradation by ZNL-02-096 after pretreatment with excess pomalidomide (Wee1 [6]; [18]): only partial rescue
- Wee1 degradation (immunoblot, in words) (Wee1 [6]; MOLT4 cells, 5 hr treatment): degradation was most pronounced
- duration of sustained Wee1 loss (Wee1 [6]; MOLT4 cells, single 100 nM treatment): at least 48 hrs
- concentration of maximal Wee1 degradation (Wee1 [6]; parental MOLT4 cells, 5 hrs): 100 nM
- concentration at which hook effect is apparent (Wee1 [6]; parental MOLT4 cells, 5 hrs, top concentration): 10 µM
- effect on Wee1 abundance (Wee1 [13]): did not affect Wee1 abundance
- dose from which pCDK1 Y15 is decreased [14]: 1 μM
- effect on cell cycle (G2/M proportion) (MOLT4 cells [7]): increased the proportion of MOLT4 cells in G2/M in a time-dependent manner
- shift in IC50, MOLT4 CRBN−/− versus parental cells (MOLT4 CRBN−/− cells): approximately 6 fold
- PLK1 downregulation (PLK1 [15]): No downregulation of PLK1
- IKZF3 degradation (Aiolos (IKZF3); [19]): degradation of both IKZF1 and IKZF3 was apparent
- IKZF3 degradation (Aiolos (IKZF3); short time points): no degradation of either IKZF1 or IKZF3
- G2/M accumulation (CRBN−/− MOLT4 cells): absent
- IKZF1 degradation (Ikaros (IKZF1); [19]): degradation of both IKZF1 and IKZF3 was apparent
- IKZF1 degradation (Ikaros (IKZF1); short time points): no degradation of either IKZF1 or IKZF3
- dose from which pCDK1 Y15 is reduced ([8]; parental MOLT4 cells, 5 hrs): 100 nM
- IC50 ([16]; read-out: IC50, PRISM): < 1000 nM
- synergy with Olaparib (OVCAR8 cells): synergized with Olaparib
- cell death [17]: induced potent cell death

Compound: C=CCn1c(=O)c2cnc(Nc3ccc(N4CCN(CCCNc5cccc6c5C(=O)N(C5CCC(=O)N(C)C5=O)C6=O)CC4)cc3)nc2n1-c1cccc(C(C)(C)O)n1 (stereo not shown) [ZNL-02-178, 4-((3-(4-(4-((2-allyl-1-(6-(2-hydroxypropan-2-yl)pyridin-2-yl)-3-oxo-2,3-dihydro-1H-pyrazolo[3,4-d]pyrimidin-6-yl)amino)phenyl)piperazin-1-yl)propyl)amino)-2-(1-methyl-2,6-dioxopiperidin-3-yl)is oindoline-1,3-dione]
- downstream changes (pCDK1 Y15, PARP cleavage, γH2Ax) ([4]; 24 hr): did not produce these downstream changes
- Wee1 degradation (immunoblot, in words) (Wee1 [6]; MOLT4 cells, 5 hr treatment): inhibits but does not degrade Wee1
- effect on Wee1 protein levels (Wee1 [6]; MOLT4 cells, out to 48 hrs after treatment): no effect on Wee1 protein levels
- effect on cell cycle (G2/M proportion) (MOLT4 cells [7]): did not appreciably affect the cell cycle
- potency in PRISM relative to ZNL-02-096 [16]: uniformly less potent
- synergy with Olaparib (OVCAR8 cells): less synergistic activity with Olaparib than ZNL-02-096 at low doses

Compound: Nc1cccc2c1C(=O)N(C1CCC(=O)NC1=O)C2=O (stereo not shown) [pomalidomide, reference compound]
- cytotoxicity (MOLT4 cells [2]; alone, Fig. S3): no detectable cytotoxicity
- effect on pCDK1 Y15, apoptosis, DNA damage ([4]; 24 hr, 1 μM): did not affect phosphorylation of CDK1 Y15, apoptosis, or levels of DNA damage
- Wee1 degradation (immunoblot, in words) (Wee1 [6]; MOLT4 cells, 5 hr treatment): insufficient to induce Wee1 degradation
- synergy with Olaparib (OVCAR8 cells): not synergistic
- synergy with AZD1775 (OVCAR8 cells; co-treatment): not synergistic
